Reference: paper PMC10096453, “One-Pot Synthesis and Evaluation of Antioxidative Stress and Anticancer Properties of an Active Chromone Derivative” (Molecules, 2023)
Where two headings read alike, the source gives them in different places.

Columns and labels:
[1] = DPPH radical scavenging assay; format: biochemical; parameters: DPPH517nm % SA ± SD: dose or concentration left out as unconfirmed; conditions: for DPPH517nm % SA ± SD: mean of three measurements
From the text: (§1) Three in vitro antioxidant assays (DPPH, FRAP, and ABTS) were utilized to evaluate the antioxidant property of the synthesized compounds. The DPPH (α, α-diphenyl-β-picrylhydrazyl) assay is the well-known approach to determine antioxidant activity using a stable free radical DPPH, measure the absorbance change, and calculate the absorbance change in the percentage of scavenging activity. […] For example, the ferric-tripyridyltriazine (Fe^3+-TPTZ, colorless) complex is reduced to ferrous tripyridyltriazine (Fe^2+-TPTZ) at low pH and introduces a blue color with maximum absorption at 593 nm. The change in absorbance is related to antioxidant activity. However, a significant limitation of these in vitro tests is the non-physiological measurement conditions (no enzymatic condition and no transition metal ion chelating activity); therefore, the results obtained may not reflect the antioxidant activity of the source material under the biological conditions that exist in humans and animals. The ABTS assay involves a more drastic radical that is chemically produced. The use of ABTS for antioxidant activity determination of hydrophilic and lipophilic pure compounds has attracted interest due to its solubility in organic and aqueous media and stability in a wide pH range [31].
The DPPH method was followed and modified from a previous study. Trolox was used as a reference. The DPPH stock solution at a concentration of 0.625 mM was prepared in 50% ethanol and kept at 4 °C in the dark. On the day of the experiment, 0.208 mM fresh DPPH working solution was freshly prepared by further diluting with 50% ethanol. […] Each reaction was carried out in a 96-well plate, and 100 μL of test preparation and DPPH solution were added. The 96-well plate was then shaken well for 10 min and kept in the dark at room temperature for 20 min, and the absorbance was recorded at 515–517 nm. According to the method described, delocalization also results in a deep violet color and is quantified as a percentage of scavenging activity. % scavenging activity (SA) = 100 × (Asample − Ablank)/(Acontrol − Ablank)(1) where Acontrol and Asample are the absorbances of the test DPPH without and with a sample, respectively. Ablank is the absorbance of the solvent used. The EC50 values were calculated from the relationship curve of %SA versus sample concentration. The experiment was carried out at least in triplicate.

[2] = MTT cytotoxicity assay, HACAT cells; format: cell-based; conditions: human; for viability at 24 h, 100 µM: read-out: % Viability ± SD (at 100 μM) HACAT 24 h; for viability at 48 h, 100 µM: read-out: % Viability ± SD (at 100 μM) HACAT 48 h
Experimental: (§2) HEK293, HACAT, and HeLa cells were grown in modified Eagles’ minimum essential medium (EMEM, Gibco) with 10% fetal bovine serum (FBS, Gibco), 1% of 100 U/mL streptomycin and 100 U/mL penicillin (Gibco). Cells were seeded in culture flasks and maintained in an incubator at 37 °C in a humidified atmosphere with 5% CO2. After reaching 80–90% of confluence, cells were detached by incubation with 0.25% trypsin-0.2% EDTA (Gibco) for 5 min and plated for experiments.
(§3) This study examined cell cultures of HEK293, HACAT, and HeLa cells. The cytotoxicity of the test samples was carried out by the MTT (3-(4,5-dimethylthiazol-2-yl)-2,5-diphenyltetrazolium bromide) assay. The cells were seeded in 96-well microliter plates (2.0 × 10^4 cells/well). Stock solutions of the test compounds were prepared in DMSO. After 24 h, cells were treated with different concentrations of samples and diluted with media to obtain the final desired concentration. The treated cells were then incubated at 37 °C and 5% CO2 for 24 and 48 h. After incubation, the medium was replaced with 0.05% w/v of MTT solution in PBS and further incubated for 3 h. The solution was then discarded and DMSO was added to dissolve the formed formazan crystals. Each well’s absorbance (A) was measured at 570 nm using a microplate reader (FLUOstar Omega^TM, BMG Labtech, Ortenberg, Germany). All experiments were carried out in triplicate and repeated for at least three experiments.

[3] = FRAP (ferric reducing antioxidant power) assay; format: biochemical; conditions: Trolox equivalent
From the text: as §1
The FRAP assay is a method for assessing antioxidant power. Briefly, the FRAP reagent was prepared from acetate buffer pH 3.6, 10 mM TPTZ solution in 40 mM HCl and 20 mM FeCl3.6 H2O in relative proportions of 10:1:1, v/v, respectively. The FRAP reagent was freshly prepared daily. A solution of 5 μL of the sample (3–300 μM, approx.) was mixed with 180 μL of the FRAP reagent in a 96-well plate. The mixture was shaken in the dark for 10 min and incubated at 37 °C for 20 min, and the absorbance was determined at 593 nm. The solution without the sample was used as a blank. All determinations were made in triplicate. Trolox was used as a standard antioxidant and plot the calibration curve between absorbance and concentration. Quercetin was applied as the reference compound. The FRAP values were calculated by comparing the absorbance change in the test sample and represented in μM of Trolox equivalent per μM of sample.

[4] = ABTS radical cation scavenging assay; format: biochemical; conditions: 500 µM
From the text: as §1
The ABTS assay was prepared by reaction of 5 mL of a 7 mM aqueous ABTS (2,2′-azino-bis (3-ethylbenzthiazoline-6-sulphonic acid) solution and 2.45 mM potassium persulfate solution (K2S2O8). After preparation and storage in the dark for 16 h, the radical cation solution was further diluted in ethanol to absorb about 0.7 at 734 nm. Trolox and test sample solutions were prepared in stock solution with DMSO and diluted with ethanol. A solution of 100 μL of the sample was mixed with 100 μL of the ABTS reagent in a 96-well plate. The mixture was shaken in a dark place for 10 min and incubated at 37 °C for 20 min, and the absorbance was determined at 734 nm. Absorbance determinations were recorded immediately and not more than 1 h after adding the reagent. The solution without the sample was used as a blank. All the determinations were made in triplicate. The sample’s scavenging percentage was calculated from this equation: scavenging percentage = (Absorbance control − Absorbance sample) × 100/Absorbance control. EC50 values were calculated from the relationship curve of %scavenging versus sample concentration.

[5] = MTT cytotoxicity assay, HEK293 cells; format: cell-based; conditions: human, HEK293 cells, 100 μM; for viability at 24 h, 100 µM: read-out: % Viability ± SD (at 100 μM) HEK293 24 h; for viability at 48 h, 100 µM: read-out: % Viability ± SD (at 100 μM) HEK293 48 h
Experimental: as §2, §3

HeLa cell = test: MTT anticancer activity assay, HeLa cells; format: cell-based
Experimental: as §2, §3

HeLa cells = test: Cell cycle analysis by flow cytometry; format: cell-based; conditions: 24 h, 2f, 2j, quercetin at IC50, paclitaxel 5 μM
Experimental: The paclitaxel (5 μM) was performed as the positive control.
The treatment of HeLa cells and compounds was the same as in the apoptosis protocol. The cells were harvested for 200 μL and centrifuged at 600× g for 5 min and washed with PBS. The mixing cells were slowly added 200 μL of ice-cold 70% ethanol and incubated for at least 3 h at −20 °C. Cells were centrifuged and washed with PBS. Finally, cells were stained with 200 μL of Muse® cell cycle reagent and incubated at room temperature for 30 min in the dark. The cell was analyzed by flow cytometry (Guava Muse Cell Analyzer, Luminex, Austin, TX, USA).

[6] = Homo sapiens, 24 h, read-out: % Viability ± SD (at 100 μM) HeLa 24 h
[7] = Homo sapiens, 48 h, read-out: % Viability ± SD (at 100 μM) HeLa 48 h

Structure (SMILES) | DPPH517nm % SA ± SD [1] [%] | EC50 ([1]; read-out: DPPH517nm EC50 ± SD) [µM] | viability at 24 h, 100 µM [2] [%] | viability at 48 h, 100 µM [2] [%] | FRAP593nm Value ± SD (TE) [3] | ABTS734nm % Scavenging at 500 µM [4] [%] | viability at 24 h, 100 µM [5] [%] | viability at 48 h, 100 µM [5] [%] | melting point [°C] | Anticancer activity on cervical cancer cells (HeLa cell; HeLa, 24 h) | IC50 (HeLa cell; Homo sapiens, HeLa, 24 h) [µM] | viability at 100 µM (HeLa cell; [6]) [%] | viability at 100 µM (HeLa cell; [7]) [%] | IC50 (HeLa cell; 24 h) [µM] | Cell cycle phase arrest (HeLa cells) | Cell population in G0/G1 phase (HeLa cells) [%] | Cell population in G2/M phase (HeLa cells) [%] | Cell population in S phase (HeLa cells) [%]
O=C(c1ccccc1)c1c(-c2ccccc2)oc2cc(O)ccc2c1=O [2d, 3-Benzoyl-7-hydroxy-2-phenyl-4H-chromen-4-one] | 15.85 ± 4.61 | > 750 | 77.8 ± 6.93 | 72.5 ± 3.41 | 0.02 ± 0.003 µM Trolox/1 µM of Synthesized Compounds | 27.59 ± 2.46 | 88.7 ± 1.33 | 87.8 ± 1.8 | 270 to 271 | contained anticancer activity | 166.9 ± 0.49 | 85.17 ± 0.79 | 42.36 ± 0.09 | – | – | – | – | –
O=C(c1ccccc1)c1c(-c2ccccc2)oc2ccc(O)cc2c1=O [2b, 3-Benzoyl-6-hydroxy-2-phenyl-4H-chromen-4-one] | 5.32 ± 2.43 | – | 75.7 ± 3.38 | 74.9 ± 1.55 | 0.02 ± 0.003 µM Trolox/1 µM of Synthesized Compounds | 35.99 ± 1.32 | 105 ± 2.7 | 72.4 ± 8.55 | 201 to 203.5 | contained anticancer activity | 95.7 | 40.9 ± 0.41 | 24.8 ± 1.05 | 95.7 ± 1.16 | – | – | – | –
CC(=O)c1ccc(O)cc1OC(=O)c1ccco1 [compound 4, 2-Acetyl-5-hydroxyphenyl furan-2-carboxylate] | 0.99 ± 0.71 | – | 85.7 ± 5.6 | 72.2 ± 1.81 | 0.00 ± 0.001 µM Trolox/1 µM of Synthesized Compounds | 14.51 ± 1.94 | 97.99 ± 0.4 | 108 ± 2.84 | 122 to 124 | – | – | 86.1 ± 3.24 | 91.07 ± 0.65 | – | – | – | – | –
O=C(c1ccccc1)c1c(-c2ccccc2)oc2cccc(O)c2c1=O [2a, 3-Benzoyl-5-hydroxy-2-phenyl-4H-chromen-4-one] | 2.23 ± 1.99 | – | 63.8 ± 3.36 | 88.5 ± 6.86 | 0.02 ± 0.004 µM Trolox/1 µM of Synthesized Compounds | 10.93 ± 1.44 | 111 ± 6.37 | 103 ± 6.05 | 156 to 158 | – | – | 91.9 ± 2.06 | 58.8 ± 2.02 | – | – | – | – | –
CC(=O)O[C@H]1C(=O)[C@@]2(C)[C@H]([C@H](OC(=O)c3ccccc3)[C@]3(O)C[C@H](OC(=O)[C@H](O)[C@@H](NC(=O)c4ccccc4)c4ccccc4)C(C)=C1C3(C)C)[C@]1(OC(C)=O)CO[C@@H]1C[C@@H]2O [Paclitaxel, paclitaxel, reference compound] | – | – | – | – | – | – | – | – | – | – | – | – | – | – | potent phase arrest of G2/M | 5.89 ± 0.18 | 89.12 ± 1.14 | 4.99 ± 0.96
COc1cccc(C(=O)c2c(-c3cccc(OC)c3)oc3cc(O)ccc3c2=O)c1 [2g, 7-Hydroxy-3-(3-methoxybenzoyl)-2-(3-methoxyphenyl)-4H-chromen-4-one] | 18.32 ± 0.40 | – | 81.5 ± 5.17 | 78.4 ± 5.44 | 0.02 ± 0.008 µM Trolox/1 µM of Synthesized Compounds | 11.52 ± 3.56 | 79.1 ± 0.9 | 76.7 ± 1.16 | 253 to 254 | contained anticancer activity | 172.7 ± 1.66 | – | 46.3 ± 1.14 | – | – | – | – | –
COc1ccc2oc(-c3ccccc3)c(C(=O)c3ccccc3)c(=O)c2c1 [2c, 3-Benzoyl-6-methoxy-2-phenyl-4H-chromen-4-one] | 5.88 ± 2.65 | – | 62.3 ± 3.04 | 60.4 ± 0.73 | 0.07 ± 0.028 µM Trolox/1 µM of Synthesized Compounds | 13.16 ± 0.78 | 72.5 ± 6.46 | 74 ± 1.32 | 194 to 196 | – | – | 60.67 ± 0.57 | 82.12 ± 0.11 | – | – | – | – | –
